Source: PubChem BioAssay (NCI)
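Cells were grown in 96-well plates and exposed to each compound for 48 hours at five concentrations; endpoints were interpolated linearly between bracketing concentrations, or set to the highest concentration if not reached. The concentration for 50% growth inhibition is given as GI50. At the TGI there is no net growth.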

Tests used:
Test in all cases: NCI-60 cell line screen, 48 h
[1] = test system: IGROV1 ovarian
[2] = test system: K-562 leukemia
[3] = test system: HOP-92 NSCLC
[4] = test system: A498 renal
[5] = test system: CCRF-CEM leukemia
[6] = test system: M14 melanoma
[7] = test system: SF-539 CNS
[8] = test system: EKVX NSCLC
[9] = test system: HS 578T breast
[10] = test system: LOX IMVI melanoma
[11] = test system: T-47D breast
[12] = test system: BT-549 breast
[13] = test system: KM12 colon
[14] = test system: 786-0 renal
[15] = test system: TK-10 renal
[16] = test system: UO-31 renal
[17] = test system: SK-MEL-2 melanoma
[18] = test system: DU-145 prostate
[19] = test system: U251 CNS
[20] = test system: NCI/ADR-RES ovarian
[21] = test system: MDA-MB-435
[22] = test system: HL-60(TB) leukemia
[23] = test system: UACC-257 melanoma
[24] = test system: OVCAR-3 ovarian
[25] = test system: MCF7 breast
[26] = test system: OVCAR-8 ovarian
[27] = test system: HT29 colon
[28] = test system: ACHN renal
[29] = test system: A549 NSCLC
[30] = test system: SN12C renal
[31] = test system: NCI-H226 lung
[32] = test system: SNB-75 CNS
[33] = test system: SK-MEL-5 melanoma
[34] = test system: OVCAR-4 ovarian
[35] = test system: SNB-19 CNS
[36] = test system: PC-3 prostate
[37] = test system: RXF 393 renal
[38] = test system: CAKI-1 renal
[39] = test system: SK-OV-3 ovarian
[40] = test system: SF-295 CNS
[41] = test system: MDA-MB-231 breast
[42] = test system: HCC-2998 colon
[43] = test system: HCT-15 colon
[44] = test system: NCI-H23 lung
[45] = test system: SK-MEL-28 melanoma
[46] = test system: SW-620 colon
[47] = test system: NCI-H460 lung
[48] = test system: OVCAR-5 ovarian
[49] = test system: MALME-3M melanoma
[50] = test system: COLO 205 colon
[51] = test system: HOP-62 NSCLC
[52] = test system: NCI-H522 lung
[53] = test system: SF-268 CNS
[54] = test system: RPMI-8226 leukemia
[55] = test system: HCT-116 colon
[56] = test system: SR leukemia
[57] = test system: MOLT-4 leukemia

CN1CCN(CCCOc2ccc3nc(Nc4ccc(F)c(F)c4)ccc3c2)CC1
GI50 [1]: 3.11 µM
TGI [1]: 9.01 µM
GI50 [2]: 1.37 µM
TGI [2]: 5.25 µM
GI50 [3]: 1.1 µM
TGI [3]: 3.6 µM
GI50 [4]: 1.26 µM
TGI [4]: 4.03 µM
GI50 [5]: 1.95 µM
TGI [5]: 11.6 µM
GI50 [6]: 1.74 µM
TGI [6]: 3.68 µM
GI50 [7]: 1.8 µM
TGI [7]: 3.73 µM
GI50 [8]: 3.17 µM
TGI [8]: 13.1 µM
GI50 [9]: 1.82 µM
TGI [9]: 5.43 µM
GI50 [10]: 1.53 µM
TGI [10]: 3.09 µM
GI50 [11]: 1.88 µM
TGI [11]: 8.79 µM
GI50 [12]: 2.34 µM
TGI [12]: 9.86 µM
GI50 [13]: 1.89 µM
TGI [13]: 4.16 µM
GI50 [14]: 1.62 µM
TGI [14]: 3.3 µM
GI50 [15]: 2 µM
TGI [15]: 4.23 µM
GI50 [16]: 1.68 µM
TGI [16]: 3.43 µM
GI50 [17]: 1.91 µM
TGI [17]: 3.8 µM
GI50 [18]: 3.07 µM
TGI [18]: 11.5 µM
GI50 [19]: 1.69 µM
TGI [19]: 3.64 µM
GI50 [20]: 3.4 µM
TGI [20]: 14.7 µM
GI50 [21]: 1.68 µM
TGI [21]: 3.36 µM
GI50 [22]: 1.26 µM
TGI [22]: 4.2 µM
GI50 [23]: 1.76 µM
TGI [23]: 3.27 µM
GI50 [24]: 2.11 µM
TGI [24]: 6.37 µM
GI50 [25]: 1.66 µM
TGI [25]: 3.53 µM
GI50 [26]: 3.6 µM
TGI [26]: 12.5 µM
GI50 [27]: 0.822 µM
TGI [27]: 2.32 µM
GI50 [28]: 2.24 µM
TGI [28]: 5.6 µM
GI50 [29]: 2.19 µM
TGI [29]: 5.26 µM
GI50 [30]: 2.97 µM
TGI [30]: 11.8 µM
GI50 [31]: 10.8 µM
TGI [31]: 29.9 µM
GI50 [32]: 1.35 µM
TGI [32]: 4.05 µM
GI50 [33]: 1.47 µM
TGI [33]: 2.88 µM
GI50 [34]: 2.84 µM
TGI [34]: 14.9 µM
GI50 [35]: 2.08 µM
TGI [35]: 4.79 µM
GI50 [36]: 1.72 µM
TGI [36]: 3.72 µM
GI50 [37]: 1.52 µM
TGI [37]: 4.36 µM
GI50 [38]: 1.67 µM
TGI [38]: 3.95 µM
GI50 [39]: 2.59 µM
TGI [39]: 6.9 µM
GI50 [40]: 1.61 µM
TGI [40]: 3.65 µM
GI50 [41]: 1.63 µM
TGI [41]: 3.57 µM
GI50 [42]: 1.71 µM
TGI [42]: 3.31 µM
GI50 [43]: 1.29 µM
TGI [43]: 3.33 µM
GI50 [44]: 3.15 µM
TGI [44]: 13.2 µM
GI50 [45]: 1.56 µM
TGI [45]: 3.2 µM
GI50 [46]: 1.82 µM
TGI [46]: 3.71 µM
GI50 [47]: 1.91 µM
TGI [47]: 4.12 µM
GI50 [48]: 2.26 µM
TGI [48]: 5.62 µM
GI50 [49]: 1.15 µM
TGI [49]: 3.06 µM
GI50 [50]: 1.72 µM
TGI [50]: 3.69 µM
GI50 [51]: 1.86 µM
TGI [51]: 3.88 µM
GI50 [52]: 1.44 µM
TGI [52]: 3.1 µM
GI50 [53]: 2.45 µM
TGI [53]: 8.31 µM
GI50 [54]: 1.7 µM
TGI [54]: 6.3 µM
GI50 [55]: 1.49 µM
TGI [55]: 3.17 µM
GI50 [56]: 1.71 µM
TGI [56]: 6.95 µM
GI50 [57]: 2.37 µM
TGI [57]: 7.76 µM
